Test results published in PubChem BioAssay AID2060615 (Molecular Pharmacology Branch, DTP, NCI, 2025).
pIC50: −log10 of the molar value.

Test system: 496974-208-R-J2-PDC complex spheroids, growth % test/control
Test: Anticancer human tumor 496974-208-R-J2-PDC patient-derived pancreatic carcinoma cell line growth inhibition [CLK]
Details: for pIC50: curve of first compound; for viability, T/C: stronger effect = lower value
Method in brief: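 Patient-derived tumor cells grown as complex spheroids with HUVEC endothelial cells and mesenchymal stem cells, treated with drug combinations. Concentrations descend in half-log steps from near clinical Cmax, or from 10 microM if Cmax unknown.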
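Also: spheroids exposed to the drugs for 7 days before readout.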
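For viability, T/C in this document: 100% = DMSO vehicle control wells.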

Compound: COc1ccc([C@@H](O)c2cc(-c3ncnc4cc(N5CCOCC5)ccc34)c(F)cc2Cl)nn1 + CNC(=O)c1ccc(Nc2nc(OC3CCCC3)c3c(-c4ccc5nc(C)oc5c4)c[nH]c3n2)c(OC)c1
- pIC50 (second compound 0.0316 µM): 5.14
- pIC50 (second compound 0.1 µM): 5.21
- pIC50 (second compound 0.316 µM): 5.59
- pIC50 (second compound 1 µM): 5.77
- pIC50 (second compound 3.16 µM): 5.87
- pIC50 (second compound 10 µM): 6.51
- viability, T/C (second compound 0.0316 µM, first compound 0.0316 µM): 102%
- viability, T/C (second compound 0.0316 µM, first compound 0.1 µM): 88.6%
- viability, T/C (second compound 0.0316 µM, first compound 0.316 µM): 89.4%
- viability, T/C (second compound 0.0316 µM, first compound 1 µM): 88.7%
- viability, T/C (second compound 0.0316 µM, first compound 3.16 µM): 76.1%
- viability, T/C (second compound 0.0316 µM, first compound 10 µM): 40.1%
- viability, T/C (second compound 0.1 µM, first compound 0.0316 µM): 78.5%
- viability, T/C (second compound 0.1 µM, first compound 0.1 µM): 75.8%
- viability, T/C (second compound 0.1 µM, first compound 0.316 µM): 83.9%
- viability, T/C (second compound 0.1 µM, first compound 1 µM): 75.9%
- viability, T/C (second compound 0.1 µM, first compound 3.16 µM): 62.3%
- viability, T/C (second compound 0.1 µM, first compound 10 µM): 41.1%
- viability, T/C (second compound 0.316 µM, first compound 0.0316 µM): 71%
- viability, T/C (second compound 0.316 µM, first compound 0.1 µM): 85.1%
- viability, T/C (second compound 0.316 µM, first compound 0.316 µM): 68.9%
- viability, T/C (second compound 0.316 µM, first compound 1 µM): 67.1%
- viability, T/C (second compound 0.316 µM, first compound 3.16 µM): 46.5%
- viability, T/C (second compound 0.316 µM, first compound 10 µM): 20.4%
- viability, T/C (second compound 1 µM, first compound 0.0316 µM): 72%
- viability, T/C (second compound 1 µM, first compound 0.1 µM): 64.2%
- viability, T/C (second compound 1 µM, first compound 0.316 µM): 65.1%
- viability, T/C (second compound 1 µM, first compound 1 µM): 58.1%
- viability, T/C (second compound 1 µM, first compound 3.16 µM): 41.6%
- viability, T/C (second compound 1 µM, first compound 10 µM): 23.2%
- viability, T/C (second compound 3.16 µM, first compound 0.0316 µM): 62.9%
- viability, T/C (second compound 3.16 µM, first compound 0.1 µM): 68%
- viability, T/C (second compound 3.16 µM, first compound 0.316 µM): 59.5%
- viability, T/C (second compound 3.16 µM, first compound 1 µM): 56.3%
- viability, T/C (second compound 3.16 µM, first compound 3.16 µM): 35.6%
- viability, T/C (second compound 3.16 µM, first compound 10 µM): 17.9%
- viability, T/C (second compound 10 µM, first compound 0.0316 µM): 59.7%
- viability, T/C (second compound 10 µM, first compound 0.1 µM): 55.8%
- viability, T/C (second compound 10 µM, first compound 0.316 µM): 50.2%
- viability, T/C (second compound 10 µM, first compound 1 µM): 42.9%
- viability, T/C (second compound 10 µM, first compound 3.16 µM): 27.3%
- viability, T/C (second compound 10 µM, first compound 10 µM): 14.2%
